Laboratory results from patent US20020055463A1, “Pseudopeptide compounds having an inhibiting activity with respect to paths activated by proteins with active tyrosine kinase activity and pharmaceutical compositions containing same” (priority 1998, published 2002).
Where a SMILES comes first, the peptide text is derived from it. [ ]: non-standard residue; d: D form. pY = N[C@@H](Cc1ccc(OP(=O)(O)O)cc1)C(=O)O

Columns and labels:
Grb2 [1] = molecular target: T1, Grb2 (Homo sapiens, UniProt P62993); assay: ELISA competition test (Grb2/biotin-Aha-PSpYVNVQN displacement); assay type: binding; details: displacement of GST-Grb2 (40 ng/ml) from fixed peptide biotin-Aha-PSpYVNVQN (Shc tyrosine 317)
T1 sequence (P62993 whole entry, species assumed): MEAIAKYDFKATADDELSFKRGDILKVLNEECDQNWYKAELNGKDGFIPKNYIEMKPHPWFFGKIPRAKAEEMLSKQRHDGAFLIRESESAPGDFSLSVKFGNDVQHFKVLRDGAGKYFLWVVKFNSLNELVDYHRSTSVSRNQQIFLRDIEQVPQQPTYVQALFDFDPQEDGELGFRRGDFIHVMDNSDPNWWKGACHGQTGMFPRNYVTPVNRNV
Method: Plates pre-treated with streptavidine (Boehringer) are incubated overnight at 4° C. with 100 μl of a solution of peptide biotin-Aha-PSpYVNVQN (Aha: 6-amino-hexanoic acid) (100 nM solution in TBS buffer Tris 100 mM, NaCl 50 mM, pH 7.5) per well. The non-specific binding is then blocked by incubating for 4 hours with the same buffer containing 3% of skimmed milk ([…]). The products to be tested are distributed among the wells at the desired dilution in the abovementioned buffer containing 3% of skimmed milk and 40 ng/ml of GST-Grb2 (100 μl per well). After one night's incubation, the plates are carefully rinsed 4 times using TBS-milk-0.05% tween 20, then incubated for 2 hours at 37° C., in the presence of 100 μl per well of anti-GST antibody (transduction, dilution 1/500 in TBS-milk-0.05% tween 20). The plates are then carefully rinsed 4 times using TBS-milk-0.05% tween 20, then incubated for 45 minutes at 37° C. in the presence of 100 µl per well of anti-mouse antibody coupled with peroxidase (Amersham, 1/1000 dilution in TBS-milk-0.05% tween 20). The plates are carefully rinsed using TBS-milk-0.05% tween 20, then incubated in the presence of 200 μl per well of TMB developing solution (Interchim), until a sufficient blue coloration has developed. The reaction is then stopped by adding 100 μl of 10% (VN) sulphuric acid per well. The reading is taken at 550 nm. The value read off for each well is then reduced by the control value of an equivalent well with no fixed peptide biotin-Aha-PSpYVNVQN then treated, like its homologue, with fixed peptide. The data is then processed using “Origin 40” software to obtain the 50 inhibitory concentrations.

Grb2 [2] = molecular target: T1, Grb2; assay: Affinity for Grb2 measured by fluorescence; assay type: binding; details: 25° C., 50 mM HEPES, 1 mM DTT, pH 7.5, emission 345 nm, excitation 292 nm, read-out: Diss. const. fluo Kd
Excerpt: They are expressed therein as the dissociation constant Kd.

Structure (SMILES): CC(C)[C@H](NC(=O)[C@H](CC(N)=O)NC(=O)[C@@H](NC(=O)[C@H](Cc1ccc(OP(=O)(O)O)cc1)NC(=O)[C@H](CO)NC(=O)[C@@H]1CCCN1)C(C)C)C(=O)N[C@@H](CCC(N)=O)C(=O)N[C@@H](CC(N)=O)C(=O)O [PSpYVNVQN (Shc 317), reference compound] (H-PS[pY]VNVQN-OH)
- IC50 (Grb2 [1]): 71 nM

Structure (SMILES): C[C@@](Cc1ccc(OP(=O)(O)O)cc1)(NC(=O)[C@H](Cc1ccc(CP(=O)(O)O)cc1)NC(=O)OCc1cccc(N)c1)C(=O)N[C@@H](CC(N)=O)C(N)=O [mAZ-Pmp-(αMe)pTyr-Asn-NH2, mAZ-Pmp-(α-Me) pTyr-Asn-NH2]
- IC50 (Grb2 [1]): 42 nM

Structure (SMILES): CC(Cc1ccc(C(F)(F)P(=O)(O)O)cc1)(NC(=O)[C@H](Cc1ccc(OP(=O)(O)O)cc1)NC(=O)OCc1cccc(N)c1)C(=O)N[C@@H](CC(N)=O)C(N)=O (stereo partly drawn) [mAZ-pTyr-(αMe)F2Pmp-Asn-NH2, mAZ-pTyr-(D,L)(α-Me)F2Pmp-Asn-NH2]
- IC50 (Grb2 [1]): 64 nM

Structure (SMILES): C[C@@](Cc1ccc(CC(=O)O)cc1)(NC(=O)[C@H](Cc1ccc(OP(=O)(O)O)cc1)NC(=O)OCc1cccc(N)c1)C(=O)N[C@@H](CC(N)=O)C(N)=O [mAZ-pTyr-(αMe)Phe(CH2—COOH)-Asn-NH2, mAZ-pTyr-(αMe)Phe(4-CH2CO2H)-Asn-NH2]
- Kd (Grb2 [2]): 60 nM
- IC50 (Grb2 [1]): 198 nM

Structure (SMILES): C[C@@](Cc1ccc(C(=O)O)cc1)(NC(=O)[C@H](Cc1ccc(OP(=O)(O)O)cc1)NC(=O)OCc1cccc(N)c1)C(=O)N[C@@H](CC(N)=O)C(N)=O [mAZ-pTyr-(αMe)Phe(COOH)-Asn-NH2, mAZ-pTyr-(αMe)Phe(4-CO2H)-Asn-NH2]
- Kd (Grb2 [2]): 45 nM
- IC50 (Grb2 [1]): 153 nM

Structure (SMILES): CC(Cc1ccc(CP(=O)(O)O)cc1)(NC(=O)[C@H](Cc1ccc(OP(=O)(O)O)cc1)NC(=O)OCc1cccc(N)c1)C(=O)N[C@@H](CC(N)=O)C(N)=O (stereo partly drawn) [mAZ-pTyr-(αMe)Pmp-Asn-NH2, mAZ-pTyr-(D,L)(αMe)Pmp-Asn-NH2]
- Kd (Grb2 [2]): 70 nM
- IC50 (Grb2 [1]): 266 nM

Structure (SMILES): CC(Cc1ccc(P(=O)(O)O)cc1)(NC(=O)[C@H](Cc1ccc(OP(=O)(O)O)cc1)NC(=O)OCc1cccc(N)c1)C(=O)N[C@@H](CC(N)=O)C(N)=O (stereo partly drawn) [mAZ-pTyr-(αMe)Ppp-Asn-NH2 (D or L)]
- Kd (Grb2 [2]): 4.5 nM

Structure (SMILES): C[C@@](Cc1ccc(O)cc1)(NC(=O)[C@H](Cc1ccc(OP(=O)(O)O)cc1)NC(=O)OCc1cccc(N)c1)C(=O)N[C@@H](CC(N)=O)C(N)=O [mAZ-pTyr-(αMe)Tyr-Asn-NH2, mAZ-pTyr-(α-Me)Tyr-Asn-NH2, reference compound]
- Kd (Grb2 [2]): 250 nM
- IC50 (Grb2 [1]): 1100 nM

Structure (SMILES): C[C@@](Cc1ccc(OP(=O)(O)O)cc1)(NC(=O)[C@H](Cc1ccc(OP(=O)(O)O)cc1)NC(=O)OCc1cccc(N)c1)C(=O)N[C@@H](CC(N)=O)C(N)=O [mAZ-pTyr-(αMe)pTyr-Asn-NH2, mAZ-pTyr-(α-Me)pTyr-Asn-NH2]
- Kd (Grb2 [2]): 3 nM
- IC50 (Grb2 [1]): 11 nM

Structure (SMILES): NC(=O)C[C@H](NC(=O)C1(NC(=O)[C@H](Cc2ccc(OP(=O)(O)O)cc2)NC(=O)OCc2cccc(N)c2)CCCCC1)C(N)=O [mAZ-pTyr-Acac-Asn-NH2, reference compound]
- Kd (Grb2 [2]): 30 nM
- IC50 (Grb2 [1]): 120 nM

Structure (SMILES): NC(=O)C[C@H](NC(=O)[C@H](Cc1ccc(O)cc1)NC(=O)[C@H](Cc1ccc(OP(=O)(O)O)cc1)NC(=O)OCc1cccc(N)c1)C(N)=O [mAZ-pTyr-Tyr-Asn-NH2, reference compound]
- Kd (Grb2 [2]): 155 nM
- IC50 (Grb2 [1]): 497 nM

Structure (SMILES): NC(=O)C[C@H](NC(=O)[C@H](Cc1ccc(OP(=O)(O)O)cc1)NC(=O)[C@H](Cc1ccc(OP(=O)(O)O)cc1)NC(=O)OCc1cccc(N)c1)C(N)=O [mAZ-pTyr-pTyr-Asn-NH2, reference compound]
- Kd (Grb2 [2]): 60 nM
- IC50 (Grb2 [1]): 235 nM
